Entries after “also recorded” stand apart in the source; their conditions may differ. Where two headings read alike, the source gives them in different places.
Assays:
[1] = tested on: SK-OV3; experiment: Cytotoxicity in vitro, IC50 on SK-OV3; assay type: cell-based; conditions: ovarian adenocarcinoma
Procedure: (§1) (5% CO2). […] All the treatments are carried out in triplicate.
(§2) SK-OV-3 and OVCAR8: ovarian adenocarcinomas
(§3) The cytotoxicity of a compound against a cancer cell line is evaluated.

[2] = tested on: Hela; experiment: MTS cytotoxicity assay, IC50 on Hela cell line; conditions: for IC50: read-out: IC50 {Hela} (in μM), MTS assay, 48 h incubation
Procedure: (§7) MTS [3-(4,5-dimethylthiazol-2-yl)-5-(3-carboxymethoxyphenyl)-2-(4-sulphophenyl)-2H-tetrazolium] is reduced to formazan (coloured compound, the optical density of which is measured at 492 nm) by the mitochondrial dehydrogenases. Only the live cells will reduce MTS to formazan, which will be released in the medium. The optical density measured at 492 nm is directly proportional to the number of live cells.
(§8) MTS [3-(4,5-dimethylthiazol-2-yl)-5-(3-carboxymethoxyphenyl)-2-(4-sulphophenyl)-2H-tetrazolium], soluble in the culture medium, can be reduced to formazan (coloured product) by the mitochondrial dehydrogenases of the live cells. The measured optical density (492 nm) is therefore directly proportional to the quantity of live cells. The cells are deposited in a 96-well plate at 1.10^4 cells per well in 100 μL of RPMI 5% FCS. The cells are then treated with the various molecules at the desired concentrations and then incubated for 48 h at 37° C. (5% CO2). After treatment, 20 μL of MTS is added to each well. After incubation for two hours at 37° C. the optical density is measured at an absorbance of 492 nm using the plate reader Wallac Victor 2 Multi-label Counter (Technical University of Denmark, Kongens Lyngby, Denmark). All the treatments are carried out in triplicate. The blank, determined by incubating RPMI with MTS, is deducted from the values of the wells containing cells. The percentage of live cells is calculated from the following formula: (OD experiment*100)/OD control.
(§9) The cytotoxicity of the compounds according to the invention is measured in vitro on the Hela and U87 cell lines.
(§10) The cytotoxicity of a compound with respect to a cancer cell line is evaluated from the value of the inhibitory concentration IC50 of said compound with respect to said cell line.
(§11) The MTS assay gives an optical density signal that is proportional to the quantity of live cells (in a linear range). These values, as well as the untreated controls, are used for calculating the percentage of live cells at each concentration. […] The IC50 values are calculated on the basis of 4-parameter fitting using the Sigma Plot software.

[3] = tested on: HL60; experiment: Percentage of cellular inhibition at 10 μM, HL60; assay type: cell-based; conditions: final concentration 10 μM; leukaemia
Procedure: as §1

[4] = tested on: MCF7; experiment: Percentage of cellular inhibition at 10 μM, MCF7; assay type: cell-based; conditions: final concentration 10 μM; breast carcinoma
Procedure: as §1

[5] = tested on: HCT116; experiment: Percentage of cellular inhibition at 10 μM, HCT116; assay type: cell-based, human; conditions: final concentration 10 μM; colon carcinoma
Procedure: as §1

[6] = tested on: EPC; experiment: Percentage of cellular inhibition at 10 μM, EPC; conditions: for Inhibition (in %) {EPC}: final concentration 10 μM, endothelial progenitor cells
Procedure: as §1
(§4) The endothelial progenitor cells (EPC) play an important role in angiogenesis and vasculogenesis; these last-mentioned contribute to tumour growth, are mobilized by cytokines secreted at cancer sites and contribute to postnatal vasculogenesis and to pathological neovascularization.
(§5) EPC: endothelial progenitor cells

[7] = tested on: MRC5; experiment: Percentage of cellular inhibition at 10 μM, MRC5; assay type: cell-based, human; conditions: for Inhibition (in %) {MRC5}: final concentration 10 μM, human fetal lung cells (non-cancerous)
Procedure: as §1
MRCS: human fetal lung cells

[8] = tested on: KB; experiment: Percentage of cellular inhibition at 10 μM, KB; assay type: cell-based; conditions: final concentration 10 μM; buccal carcinoma
Procedure: as §1

[9] = tested on: cell lines KB, SK-OV3, OVCAR-8, HL60, MCF7, HCT116, PC3, MRCS, Vero and EPC; experiment: Cellular inhibition, overall statements on the panel of cell lines; assay type: cell-based; conditions: 10 μM, panel of cancer and non-cancerous cell lines
Source text: The results obtained are presented below.

[10] = tested on: U87; experiment: MTS cytotoxicity assay, IC50 on U87 cell line; conditions: for IC50: read-out: IC50 {U87} (in μM), MTS assay, 48 h incubation
Procedure: as §7, §8, §9
U87: stage IV glioblastoma, expresses αVβ5 and can be used as a xenograft
as §10, §11

[11] = tested on: PC3; experiment: Percentage of cellular inhibition at 10 μM, PC3; assay type: cell-based; conditions: final concentration 10 μM; prostatic adenocarcinoma
Procedure: as §1
(§6) PC3: prostatic adenocarcinoma

[12] = tested on: SK-OV3; experiment: Percentage of cellular inhibition at 10 μM, SK-OV3; assay type: cell-based; conditions: for Inhibition (in %) {SK-OV3}: final concentration 10 μM, ovarian adenocarcinoma
Procedure: as §1, §2

[13] = tested on: Vero; experiment: Percentage of cellular inhibition at 10 μM, Vero; assay type: cell-based, monkey; conditions: for cytotoxicity on non-cancerous cells Vero (in words): 10 μM; for Inhibition (in %) {Vero}: final concentration 10 μM, monkey kidney epithelial cells (non-cancerous)
Procedure: as §1
Vero: monkey kidney epithelial cells

[14] = tested on: PC3; experiment: Cytotoxicity in vitro, IC50 on PC3; assay type: cell-based
Procedure: as §1, §6, §3

[15] = Measurement of water-solubility; assay type: physicochemical
[16] = tested on: OVCAR8; experiment: Percentage of cellular inhibition at 10 μM, OVCAR8; assay type: cell-based; conditions: for Inhibition (in %) {OVCAR8}: final concentration 10 μM, ovarian adenocarcinoma
Procedure: as §1, §2

[17] = tested on: MCF7; experiment: Cytotoxicity in vitro, IC50 on MCF7; assay type: cell-based; conditions: breast carcinoma
Procedure: as §1, §3

[18] = tested on: HCT116; experiment: Cytotoxicity in vitro, IC50 on HCT116; assay type: cell-based, human
Procedure: as §1, §3

[19] = tested on: OVCAR8; experiment: Cytotoxicity in vitro, IC50 on OVCAR8; assay type: cell-based; conditions: ovarian adenocarcinoma
Procedure: as §1, §2, §3

[20] = target: integrin αvβ3 (Homo sapiens, UniProt P05106+P06756); conditions: background statement; cited from earlier work
Chain of integrin αvβ3 (P06756 31-889 limits assumed): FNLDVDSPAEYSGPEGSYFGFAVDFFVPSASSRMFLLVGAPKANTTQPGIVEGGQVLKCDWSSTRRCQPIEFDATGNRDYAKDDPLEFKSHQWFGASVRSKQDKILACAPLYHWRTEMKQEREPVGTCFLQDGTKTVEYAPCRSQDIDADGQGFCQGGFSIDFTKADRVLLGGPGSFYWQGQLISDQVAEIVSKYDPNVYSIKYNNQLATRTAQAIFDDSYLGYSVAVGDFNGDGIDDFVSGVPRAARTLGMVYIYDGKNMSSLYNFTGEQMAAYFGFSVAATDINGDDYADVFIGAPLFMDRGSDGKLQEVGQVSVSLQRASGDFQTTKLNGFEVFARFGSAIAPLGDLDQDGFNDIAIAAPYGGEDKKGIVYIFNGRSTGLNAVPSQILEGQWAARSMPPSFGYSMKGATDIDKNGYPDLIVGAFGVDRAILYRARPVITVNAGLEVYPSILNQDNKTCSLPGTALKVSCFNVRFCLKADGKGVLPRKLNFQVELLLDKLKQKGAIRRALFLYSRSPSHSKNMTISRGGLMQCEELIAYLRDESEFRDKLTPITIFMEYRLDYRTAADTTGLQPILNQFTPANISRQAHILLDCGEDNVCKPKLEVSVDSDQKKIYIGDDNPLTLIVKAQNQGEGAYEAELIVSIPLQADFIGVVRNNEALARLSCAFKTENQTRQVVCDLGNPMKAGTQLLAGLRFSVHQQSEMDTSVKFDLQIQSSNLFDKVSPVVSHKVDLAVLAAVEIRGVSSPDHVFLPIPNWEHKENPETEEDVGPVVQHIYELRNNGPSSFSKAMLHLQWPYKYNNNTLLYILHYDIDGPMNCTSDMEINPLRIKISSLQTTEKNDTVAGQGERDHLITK
Chain of integrin αvβ3 (P06756 891-1048 partner limits assumed): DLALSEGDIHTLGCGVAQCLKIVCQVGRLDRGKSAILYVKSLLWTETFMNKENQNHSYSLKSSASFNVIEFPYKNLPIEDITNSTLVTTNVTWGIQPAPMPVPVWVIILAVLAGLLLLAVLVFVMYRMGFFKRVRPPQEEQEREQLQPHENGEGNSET
Chain of integrin αvβ3 (P05106 27-788): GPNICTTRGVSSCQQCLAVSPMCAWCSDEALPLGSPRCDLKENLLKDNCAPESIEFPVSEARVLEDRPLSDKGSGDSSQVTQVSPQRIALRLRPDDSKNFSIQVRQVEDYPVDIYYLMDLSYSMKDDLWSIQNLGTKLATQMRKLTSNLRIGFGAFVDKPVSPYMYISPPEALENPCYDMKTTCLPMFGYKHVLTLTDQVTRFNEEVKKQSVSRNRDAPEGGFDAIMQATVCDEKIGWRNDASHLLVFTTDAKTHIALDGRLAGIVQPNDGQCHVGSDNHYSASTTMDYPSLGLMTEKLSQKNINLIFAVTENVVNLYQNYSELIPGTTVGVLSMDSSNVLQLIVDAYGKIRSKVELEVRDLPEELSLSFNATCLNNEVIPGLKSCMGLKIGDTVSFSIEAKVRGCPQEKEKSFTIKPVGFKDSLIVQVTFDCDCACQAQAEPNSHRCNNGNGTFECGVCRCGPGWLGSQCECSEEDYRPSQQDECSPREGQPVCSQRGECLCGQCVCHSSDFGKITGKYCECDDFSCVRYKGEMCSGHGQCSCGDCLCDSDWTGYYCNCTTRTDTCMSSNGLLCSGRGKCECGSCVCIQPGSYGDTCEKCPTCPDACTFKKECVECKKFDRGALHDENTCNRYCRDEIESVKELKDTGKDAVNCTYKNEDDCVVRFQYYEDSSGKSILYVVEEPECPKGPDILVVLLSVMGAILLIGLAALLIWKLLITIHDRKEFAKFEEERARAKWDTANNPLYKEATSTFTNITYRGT

[21] = tested on: EPC; experiment: Cytotoxicity in vitro, IC50 on EPC (endothelial progenitor cells); assay type: cell-based
Procedure: as §1, §5, §4, §3

[22] = measured by first dissolving cisplatin in water

| Compound | IC50 [1] | Inhibition (in %) {HL60} [3] | Inhibition (in %) {MCF7} [4] | Inhibition (in %) {HCT116} [5] | anti-angiogenic activity by inhibition of growth of EPC cells (in words) ([6]; 10 μM) | Inhibition (in %) {EPC} [6] | Inhibition (in %) {MRC5} [7] | Inhibition (in %) {KB} [8] | inhibition of cell growth, overall statement on the cell panel (in words) [9] | Inhibition (in %) {PC3} [11] | Inhibition (in %) {SK-OV3} [12] | Inhibition (in %) {Vero} [13] | IC50 ([14]; prostatic adenocarcinoma) | Inhibition (in %) {OVCAR8} [16] | IC50 [17] | IC50 [21] | also measured |
| --- | --- | --- | --- | --- | --- | --- | --- | --- | --- | --- | --- | --- | --- | --- | --- | --- | --- |
| trans-diiodo(N-poly(ethylenamine))[1-methyl-3-benzyl-imidazol-2-ylidene]platinum(II) [Example 34] | 1.2 µM | 97.0% | 98.2% | 90.1% | anti-angiogenic activity | 95.8% | 26.4% | 64.0% | inhibitor of the growth of cancer cells and an anti-angiogenic agent; also recorded: cytotoxic activity on all of the cancer cells tested | 64.2% | 99.1% | 19.5% | 2.8 µM | 79.1% | 1.7 µM |  | cytotoxic activity compared with cisplatin, HeLa cell line (in words) ([2]; comparison with cisplatin): almost identical to that of cisplatin; IC50 [2]: 28.4 µM; cytotoxic activity compared with cisplatin, U87 cell line (in words) ([10]; comparison with cisplatin): almost identical to that of cisplatin; IC50 [10]: 8.3 µM; cytotoxicity on non-cancerous cells Vero (in words) [13]: low cytotoxicity; Water-solubility [15]: 6700 µg/mL; IC50 ([18]; colon carcinoma): 1 µM |
| COCCOCCOCCOCCn1ccn(C)[c]1=[Pt]([I])[I].NC1CCCCC1 [Example 13, trans-diiodo(N-cyclohexylamine)[1-methyl-3-(2,5,8,11-tetraoxatridecan-13-yl)-imidazol-2-ylidene]platinum(II)] |  | 87.3% | 94.2% | 94.0% | anti-angiogenic activity | 96.1% |  | 100.4% | improves the activity of inhibition of cell growth | 83.8% | 90.9% |  |  | 92.4% |  |  |  |
| COCCOCCOCCOCCn1ccn(CCOCCOCCOCCOC)[c]1=[Pt]([I])[I].NC1CCCCC1 [Example 14, trans-diiodo(N-cyclohexylamine)[1,3-di(2,5,8,11-tetraoxatridecan-13-yl)-imidazol-2-ylidene]platinum(II)] | 6.2 µM | 31.2% | 18.6% | 31.9% |  | 27.2% | 24.5% | 26.6% | selective inhibitor of the growth of cancer cells | 5.7% | 62.8% | 17.0% |  | 78.4% |  |  | cytotoxicity on non-cancerous cells EPC (in words) ([6]; 10 μM): low cytotoxicity; cytotoxicity on non-cancerous cells MRCS (in words) ([7]; 10 μM): low cytotoxicity; selectivity of inhibition of cell growth, SKOV-3 (in words) ([12]; 10 μM): selective with respect to the ovarian cancer cells SKOV-3 and OVCAR8; IC50 [19]: 3.9 µM; cytotoxicity on non-cancerous cells Vero (in words) [13]: low cytotoxicity; selectivity of inhibition of cell growth, OVCAR8 (in words) ([16]; 10 μM): selective with respect to the ovarian cancer cells SKOV-3 and OVCAR8 |
| cyclo(RGDfK) [cyclo(RGDfK) peptide] |  |  |  |  |  |  |  |  |  |  |  |  |  |  |  |  | affinity for integrin αvβ3 (in words) [20]: high affinity |
| CN1C=CN(Cc2ccccc2)[CH]1[Pt]([I])([I])[NH]CCN (stereo not drawn) [Example 33, trans-diiodo(N-ethylenediamine)[1-methyl-3-benzyl-imidazol-2-ylidene]platinum(II)] |  |  |  |  |  |  |  |  |  |  |  |  |  |  |  |  | solubility ([15]; water, thermodynamic from solid, ambient temperature and pressure): 3300 µg/mL |
| N.N.[Cl][Pt][Cl] [Cisplatin, cisplatin, reference compound] | > 10 µM | −10.6% | −4.1% | 2.7% |  | −1.2% | −20.4% | 3.6% |  | −6.2% | 4.4% | −4.0% |  | −1.8% | > 10 µM | > 10 µM | IC50 [2]: 26.2 µM; IC50 [10]: 8 µM; IC50 [19]: > 10 µM; IC50 [14, 22]: 5.1 µM; IC50 [18, 22]: 5.5 µM |
| trans-diiodo(N-[(methoxy)polyethylene glycol amine])[1-methyl-3-benzyl-imidazol-2-ylidene]platinum(II) [Example 22] |  | 87.4% | 91.7% | 94.3% | anti-angiogenic activity | 93.7% |  | 77.8% |  | 78.5% | 90.3% |  |  | 90.0% |  |  | Water-solubility ([15]; ambient temperature and pressure): 11100 µg/mL |
| CCCCCCCn1ccn(C)[c]1=[Pt]([I])[I].c1ccncc1 [Example 9, trans-diiodo(N-pyridine)[1-methyl-3-heptyl-imidazol-2-ylidene]platinum(II)] | 0.2 µM | 97.2% | 98.6% | 98.2% | anti-angiogenic activity | 100.0% |  | 100.8% |  | 91.3% | 98.5% |  | 0.7 µM | 96.8% | 0.2 µM | 1 µM |  |
| CNC(=O)NCC(Cc1ccccc1)NC(=O)NCC(Cc1ccccc1)NC(=O)NCC(Cc1ccccc1)NC(=O)NCC(N)Cc1ccccc1.Cn1ccn(Cc2ccccc2)[c]1=[Pt]([I])[I] [Example 39, trans-diiodo(N-[1-((2R,7R,12R,17R)-17-amino-2,7,12-tribenzyl-4,9,14-trioxo-18-phenyl-3,5,8,10,13,15-hexaazaoctadecyl)-3-methylurea])[1-methyl-3-benzyl-imidazol-2-ylidene]platinum(II)] | 0.6 µM | 91.0% | 95.9% | 96.1% | anti-angiogenic activity | 99.3% |  | 101.2% |  | 90.9% | 95.2% |  | 1.4 µM | 92.1% | 0.6 µM | 1.9 µM | IC50 ([18]; colon carcinoma): 0.4 µM |
